In patent publication US20240124418A1 (BioTheryX, Inc., priority 2020, published 2024):

How the values were obtained:
PDE4B = target: T1, PDE4B (Homo sapiens, UniProt Q07343); experiment: Protein degradation assay, western blot, PDE4B in A549 cells; assay type: cell-based; conditions: 24 h treatment, 'as high as about' = upper value for the group, read-out: PDE4B degradation relative to DMSO
T1 construct: endogenous in cells; host or cells: A549
Experimental: Example B2. Protein Degradation Assay
A549 cells were grown in RPMI 1640 media supplemented with 10% fetal bovine serum, streptomycin, and penicillin. The cells were plated in 6-well plates at 300,000 cells/well in the growth media. After overnight incubation, the cells were treated with DMSO (control) or a compound at predetermined concentrations (e.g., 10 nM, 100 nM, 1 μM, 3 μM, or 10 μM) for 24 h at 37° C. under 5% CO2. Whole cell extracts were prepared using an immunoprecipitation (IP) lysis buffer. The cells were washed once in PBS, and the cell pellets were resuspended in the IP lysis buffer and incubated for 15 min on ice. Cells debris was removed by centrifugation and the cleared whole cell lysates were transferred to new tubes for further analysis.
For a western blot analysis, the whole cell protein extracts were separated on 4-12% SDS-polyacrylamide gels, transferred to nitrocellulose, and probed with primary antibodies. Membranes were subsequently washed and probed with IRDYE® secondary antibodies. The signals were detected using an ODYSSEY® Imaging System. The antibodies used in the assay included anti-PDE4B antibody; anti-PDE4D antibodies (top, bottom, and short isoform); β-actin mouse monoclonal antibody; IRDYE® 680RD goat anti-rabbit antibody; and IRDYE® 800CW goat anti-mouse antibody. The compounds provided herein are PDE4 protein degraders.

TNF-α = experiment: Cell-based TNF-α inhibition assay (LPS-induced PBMCs, Meso Scale); conditions: PBMC, PBMCs pretreated 1 h, LPS 100 ng/mL 18-24 h, percentage of stimulated DMSO control; for inhibition at 0.1 µM: compound concentration 0.1 μM; for inhibition at 1 µM: compound concentration 1 μM
Procedure, shortened: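 Thawed primary PBMCs (200,000 cells/well, RPMI 1640 with 10% FBS) were pretreated with compound for 1 h, then stimulated with 100 ng/mL LPS for 18–24 h. Supernatant TNF-α was measured by Meso Scale, and activity was expressed as percent inhibition relative to the stimulated DMSO control.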

T1 sequence (Q07343 whole entry): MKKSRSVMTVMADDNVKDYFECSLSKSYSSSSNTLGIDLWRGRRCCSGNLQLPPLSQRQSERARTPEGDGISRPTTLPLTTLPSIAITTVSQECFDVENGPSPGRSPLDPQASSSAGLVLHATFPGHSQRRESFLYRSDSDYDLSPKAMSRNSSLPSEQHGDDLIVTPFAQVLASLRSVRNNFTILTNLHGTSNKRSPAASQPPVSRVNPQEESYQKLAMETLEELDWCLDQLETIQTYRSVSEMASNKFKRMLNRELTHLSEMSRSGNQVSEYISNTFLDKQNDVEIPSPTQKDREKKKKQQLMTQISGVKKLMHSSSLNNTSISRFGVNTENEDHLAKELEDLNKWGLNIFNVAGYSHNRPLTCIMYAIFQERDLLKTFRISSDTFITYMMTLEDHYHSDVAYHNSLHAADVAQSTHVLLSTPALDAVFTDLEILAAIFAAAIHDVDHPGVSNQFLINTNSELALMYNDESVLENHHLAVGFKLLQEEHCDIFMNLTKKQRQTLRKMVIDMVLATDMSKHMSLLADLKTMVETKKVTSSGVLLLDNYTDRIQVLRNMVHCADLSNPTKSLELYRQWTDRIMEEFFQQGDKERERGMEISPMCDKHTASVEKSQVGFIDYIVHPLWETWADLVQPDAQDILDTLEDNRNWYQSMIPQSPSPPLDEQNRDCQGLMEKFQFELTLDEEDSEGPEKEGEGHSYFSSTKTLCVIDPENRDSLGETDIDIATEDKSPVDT

With CCOc1cc([C@@H](CS(C)(=O)=O)N2C(=O)c3cccc(NC(=O)CCCCCCCCCCCNc4cccc5c4C(=O)N(C4CCC(=O)NC4=O)C5=O)c3C2=O)ccc1OC (stereo partly drawn) [Compound A6, 12-((2-(2,6-Dioxopiperidin-3-yl)-1,3-dioxoisoindolin-4-yl)amino)-N-(2-((S)-1-(3-ethoxy-4-methoxyphenyl)-2-(methylsulfonyl)ethyl)-1,3-dioxoisoindolin-4-yl)dodecanamide] the Dmax (PDE4B) was at most 70%.

O=C1CCC(N2Cc3c(C#CC4CCN(C(=O)CCCCOc5cc(C(=O)Nc6c(Cl)cncc6Cl)ccc5OC(F)F)CC4)cccc3C2=O)C(=O)N1 (centres unmarked) [Compound B2, N-(3,5-Dichloropyridin-4-yl)-4-(difluoromethoxy)-3-((5-(4-((2-(2,6-dioxopiperidin-3-yl)-1-oxoisoindolin-4-yl)ethynyl)piperidin-1-yl)-5-oxopentyl)oxy)benzamide] gave a Dmax (PDE4B) of at most 70%.

Work on CCOc1cc([C@@H](CS(C)(=O)=O)N2C(=O)c3cc(CCCCCCCCCCCCN4CCC(c5cc(F)cc6c5CN(C5CCC(=O)NC5=O)C6=O)CC4)cc(NC(C)=O)c3C2=O)ccc1OC (stereo partly drawn) [Compound A14, N-(6-(12-(4-(2-(2,6-Dioxopiperidin-3-yl)-6-fluoro-1-oxoisoindolin-4-yl)piperidin-1-yl)dodecyl)-2-((S)-1-(3-ethoxy-4-methoxyphenyl)-2-(methylsulfonyl)ethyl)-1,3-dioxoisoindolin-4-yl)acetamide] yielded a Dmax (PDE4B) of at most 70%.

Cc1ncsc1-c1ccc(CNC(=O)[C@@H]2C[C@@H](O)CN2C(=O)[C@@H](NC(=O)CCCCCCCCOc2cc(C(=O)Nc3c(Cl)cncc3Cl)ccc2OC(F)F)C(C)(C)C)cc1 [Compound B20, (2S,4R)-1-((S)-2-(9-(5-((3,5-Dichloropyridin-4-yl)carbamoyl)-2-(difluoromethoxy)phenoxy)nonanamido)-3,3-dimethylbutanoyl)-4-hydroxy-N-(4-(4-methylthiazol-5-yl)benzyl)pyrrolidine-2-carboxamide] showed a Dmax (PDE4B) of at most 70%.

For O=C1CCC(N2Cc3c(cc(F)cc3C3CCN(CCCCCCCCCCCCOc4cc(C(=O)Nc5c(Cl)cncc5Cl)ccc4OC(F)F)CC3)C2=O)C(=O)N1 (centres unmarked) [Compound B7, N-(3,5-Dichloropyridin-4-yl)-4-(difluoromethoxy)-3-((12-(4-(2-(2,6-dioxo-piperidin-3-yl)-6-fluoro-1-oxoisoindolin-4-yl)piperidin-1-yl)dodecyl)oxy)benzamide], the Dmax (PDE4B) was at most 70%.

Work on O=C1CCC(N2Cc3cc(C4CCN(CCCCCCCOc5cc(C(=O)Nc6c(Cl)cncc6Cl)ccc5OC(F)F)CC4)c(F)cc3C2=O)C(=O)N1 (centres unmarked) [Compound B3, N-(3,5-Dichloropyridin-4-yl)-4-(difluoromethoxy)-3-((7-(4-(2-(2,6-dioxopiperidin-3-yl)-6-fluoro-1-oxoisoindolin-5-yl)piperidin-1-yl)heptyl)oxy)benzamide] yielded a Dmax (PDE4B) of at most 70%.

Cc1ncsc1-c1ccc(CNC(=O)[C@@H]2C[C@@H](O)CN2C(=O)[C@@H](NC(=O)CCCCCCCCCCOc2cc(C(=O)Nc3c(Cl)cncc3Cl)ccc2OC(F)F)C(C)(C)C)cc1 [Compound B21, (2S,4R)-1-((S)-2-(11-(5-((3,5-dichloropyridin-4-yl)carbamoyl)-2-(difluoromethoxy)phenoxy)undecanamido)-3,3-dimethylbutanoyl)-4-hydroxy-N-(4-(4-methyl-thiazol-5-yl)benzyl)pyrrolidine-2-carboxamide] gave a Dmax (PDE4B) of at most 70%.

For CCOc1cc([C@@H](CS(C)(=O)=O)N2C(=O)c3cccc(NC(=O)CCCCCCCCNCc4ccc(OCc5scc6c5CN(C5CCC(=O)NC5=O)C6=O)cc4)c3C2=O)ccc1OC (stereo partly drawn) [Compound A12, 9-((4-((5-(2,6-Dioxopiperidin-3-yl)-4-oxo-5,6-dihydro-4H-thieno[3,4-c]pyrrol-1-yl)methoxy)benzyl)amino)-N-(2-((S)-1-(3-ethoxy-4-methoxyphenyl)-2-(methylsulfonyl)ethyl)-1,3-dioxoisoindolin-4-yl)nonanamide], the Dmax (PDE4B) was at most 70%.

Cc1ncsc1-c1ccc(CNC(=O)[C@@H]2C[C@@H](O)CN2C(=O)[C@@H](NC(=O)CCCCCCCCOc2cc(C(=O)Nc3c(Cl)cncc3Cl)ccc2OCC2CC2)C(C)(C)C)cc1 [Compound B22, (2S,4R)-1-((S)-2-(9-(2-(Cyclopropylmethoxy)-5-((3,5-dichloropyridin-4-yl)carbamoyl)phenoxy)nonanamido)-3,3-dimethylbutanoyl)-4-hydroxy-N-(4-(4-methylthiazol-5-yl)benzyl)pyrrolidine-2-carboxamide] gave an inhibition at 0.1 µM (TNF-α) of under 20% and an inhibition at 1 µM (TNF-α) of 20 to 40%.

Work on CCOc1cc([C@@H](CS(C)(=O)=O)N2C(=O)c3cccc(NC(=O)CCCCCCCCCN4CCN(CC(=O)Nc5ccc(C6CCC(=O)NC6=O)cc5)CC4)c3C2=O)ccc1OC (stereo partly drawn) [Compound A86, 10-[4-({[4-(2,6-Dioxopiperidin-3-yl)phenyl]carbamoyl}methyl)piperazin-1-yl]-N-{2-[(1S)-1-(3-ethoxy-4-methoxyphenyl)-2-methanesulfonylethyl]-1,3-dioxo-2,3-dihydro-1H-isoindol-4-yl}decanamide] yielded an inhibition at 0.1 µM (TNF-α) of at least 60% and an inhibition at 1 µM (TNF-α) of at least 60%.

In the case of CCOc1cc([C@@H](CS(C)(=O)=O)N2C(=O)c3cccc(NC(=O)CCCCCCCCOc4cc(-c5scnc5C)ccc4CNC(=O)[C@@H]4C[C@@H](O)CN4C(=O)[C@@H](NC(C)=O)C(C)(C)C)c3C2=O)ccc1OC [Compound A74, (2S,4R)-1-[(2S)-2-Acetamido-3,3-dimethylbutanoyl]-N-[(2-{[8-({2-[(1S)-1-(3-ethoxy-4-methoxyphenyl)-2-methanesulfonylethyl]-1,3-dioxo-2,3-dihydro-1H-isoindol-4-yl}-carbamoyl)octyl]oxy}-4-(4-methyl-1,3-thiazol-5-yl)phenyl)methyl]-4-hydroxypyrrolidine-2-carboxamide], the inhibition at 0.1 µM (TNF-α) is reported as at least 60% and the inhibition at 1 µM (TNF-α) is reported as at least 60%.

In the case of CCOc1cc([C@@H](CS(C)(=O)=O)N2C(=O)c3c(CCCCCCCCCCCCN4CCC(c5cc(F)cc6c5CN(C5CCC(=O)NC5=O)C6=O)CC4)ccc(NC(C)=O)c3C2=O)ccc1OC (stereo partly drawn) [Compound A17, N-[7-(12-{4-[2-(2,6-Dioxopiperidin-3-yl)-6-fluoro-1-oxo-2,3-dihydro-1H-isoindol-4-yl]piperidin-1-yl}dodecyl)-2-[(1S)-1-(3-ethoxy-4-methoxyphenyl)-2-methanesulfonylethyl]-1,3-dioxo-2,3-dihydro-1H-isoindol-4-yl]acetamide], the inhibition at 0.1 µM (TNF-α) is reported as at least 60% and the inhibition at 1 µM (TNF-α) is reported as at least 60%.

Work on CCOc1cc([C@@H](CS(C)(=O)=O)N2C(=O)c3cccc(NC(=O)CCCCCCCCN4CCC(c5ccc6c(c5)CN(C5CCC(=O)NC5=O)C6=O)CC4)c3C2=O)ccc1OC (stereo partly drawn) [Compound A26, 9-{4-[2-(2,6-Dioxopiperidin-3-yl)-1-oxo-2,3-dihydro-1H-isoindol-5-yl]piperidin-1-yl}-N-{2-[(1S)-1-(3-ethoxy-4-methoxyphenyl)-2-methanesulfonylethyl]-1,3-dioxo-2,3-dihydro-1H-isoindol-4-yl}nonanamide] yielded an inhibition at 0.1 µM (TNF-α) of at least 60% and an inhibition at 1 µM (TNF-α) of at least 60%.

Compound CCOc1cc([C@@H](CS(C)(=O)=O)N2C(=O)c3cc(CCCCCCCCCCCCC(=O)N[C@H](C(=O)N4C[C@H](O)C[C@H]4C(=O)NCc4ccc(-c5scnc5C)cc4)C(C)(C)C)cc(NC(C)=O)c3C2=O)ccc1OC [Compound A61, (2S,4R)-1-[(2S)-2-(13-{7-Acetamido-2-[(1S)-1-(3-ethoxy-4-methoxyphenyl)-2-methanesulfonylethyl]-1,3-dioxo-2,3-dihydro-1H-isoindol-5-yl}tridecanamido)-3,3-dimethylbutanoyl]-4-hydroxy-N-{[4-(4-methyl-1,3-thiazol-5-yl)phenyl]methyl}pyrrolidine-2-carboxamide] has an inhibition at 0.1 µM (TNF-α) of at least 60% and an inhibition at 1 µM (TNF-α) of at least 60%.

Compound CCOc1cc([C@@H](CS(C)(=O)=O)N2C(=O)c3cccc(CCCCCCCCCCC(=O)N[C@H](C(=O)N4C[C@H](O)C[C@H]4C(=O)NCc4ccc(-c5scnc5C)cc4)C(C)(C)C)c3C2=O)ccc1OC [Compound A62, (2S,4R)-1-[(2S)-2-(11-{2-[(1S)-1-(3-Ethoxy-4-methoxyphenyl)-2-methanesulfonylethyl]-1,3-dioxo-2,3-dihydro-1H-isoindol-4-yl}undecanamido)-3,3-dimethylbutanoyl]-4-hydroxy-N-{[4-(4-methyl-1,3-thiazol-5-yl)phenyl]methyl}pyrrolidine-2-carboxamide] has an inhibition at 0.1 µM (TNF-α) of at least 60% and an inhibition at 1 µM (TNF-α) of at least 60%.

In the case of O=C1CCC(N2Cc3c(cc(F)cc3C3CCN(CCCCCOc4cc(C(=O)Nc5c(Cl)cncc5Cl)ccc4OC(F)F)CC3)C2=O)C(=O)N1 (centres unmarked) [Compound B5, N-(3,5-Dichloropyridin-4-yl)-4-(difluoromethoxy)-3-((5-(4-(2-(2,6-dioxo-piperidin-3-yl)-6-fluoro-1-oxoisoindolin-4-yl)piperidin-1-yl)pentyl)oxy)benzamide], the inhibition at 0.1 µM (TNF-α) is reported as at least 60%.
